Assay results taken from article PMC6014988, “Precision therapeutic targeting of human cancer cell motility” (Nature Communications, 2018).
“And” between values parts separate entries of the source, which are not always exact repeats. Identical values can stand only once.

What was measured:
[1] = test system: over 400 different protein kinases and 20 phosphatases; assay: Kinase and phosphatase inhibition, three in vitro assay systems; format: biochemical
Description: (§1) Initial assays were performed with PC3 and PC3-M cells (PC3 cell data not shown). However, as these studies yielded similar findings, subsequent screening assays utilized only PC3-M cells. In designing chemical synthetic routes, priority was given to efficacy and toxicity parameters. Additional design features were also included in our chemical […]
(§2) toxicity parameters. These additional design features included removal of fragments that mediated genistein binding to the estrogen receptor (ER), as determined by ER-genistein 3D x-ray crystal structures (Protein Data Base IDs:1X7R and 1X7J, for crystal structures of ERα and ERβ with bound genistein, respectively). These features also included removal of chemical fragments that are considered to increase susceptibility to rapid metabolism, especially that by the cytochrome P450 (CYP) pathway. The final feature involved incorporation of chemical characteristics previously shown to be associated with effective drugs and which together generally impart more favorable pharmacologic properties, including those described by Lipinski […]
(§3) Supplementary Note 2. […] Three […]
(§4) different assays systems were employed.
(§5) Kinase assay system #1. The KINOMEscan™ assay (Ambit Biosciences). This assay evaluates 442 kinases, including 400 distinct parental kinases plus mutants known to alter activity or responsiveness. […]

[2] = test system: protein phosphorylation in PC3-M and PC3 cells; assay: KinomeView phospho-motif antibody screen; format: cell-based, human; conditions: 10 µM, 3 days, ± TGFβ
Description: The Kinoview™ and PhosphoScan™ assays were performed by Cell Signaling Technology Inc.
Supplementary Figure 10. Proteomic analysis of the effects of KBU2046 on the kinome. (a-c) Screening for effects on the kinome. PC3-M cells were pre-treated with 10 µM KBU2046, genistein or vehicle control for 3 days, then with ± TGFβ, as indicated. Resultant cell lysate, as well as lysate from tumors from mice treated with 150 mg/kg KBU2046 or control mice (from manuscript Figure 2a), were then probed with the KinomeView® panel of antibodies by Western blot. In instances where KBU2046 was inhibiting protein phosphorylation in cells and in tumors, a repeat experiment of PC3-M cells was conducted (Experiment #2). In addition to including PC3-M cells, as in Experiment #1, Experiment #2 expanded to examine effects on PC3 cells. (a) The identification of an 83 kDa band of interest (red arrows). This constitutes the only change […]
as in tumor tissue. […] (c) All […]
other Western blots of phospho-motif antibodies that were evaluated on initial screen. NI = tumor not informative; this denotes a tumor sample that yielded an abnormal coomassie blue staining pattern. Data from this sample was therefore not considered further.
(also on this page, place not known: cat #C32G12; tPE cat #2981; sRXY, FXs NI NI cat #2351; tXR cat #23C8D12; RXRXX(s/t) NI NI)
(1 picture or pasted object on this page, not shown here)

HSP90β = target: T1, HSP90β (Homo sapiens, UniProt P08238+Q16543); assay: In vitro kinase assay, SGK3 phosphorylation of HSP90β; format: biochemical
T1 construct: made in house; host or cells: E. coli (HSP90β, CDC37); SGK3 purchased from Thermo Scientific #PV3859
T1 sequence (P08238 whole entry): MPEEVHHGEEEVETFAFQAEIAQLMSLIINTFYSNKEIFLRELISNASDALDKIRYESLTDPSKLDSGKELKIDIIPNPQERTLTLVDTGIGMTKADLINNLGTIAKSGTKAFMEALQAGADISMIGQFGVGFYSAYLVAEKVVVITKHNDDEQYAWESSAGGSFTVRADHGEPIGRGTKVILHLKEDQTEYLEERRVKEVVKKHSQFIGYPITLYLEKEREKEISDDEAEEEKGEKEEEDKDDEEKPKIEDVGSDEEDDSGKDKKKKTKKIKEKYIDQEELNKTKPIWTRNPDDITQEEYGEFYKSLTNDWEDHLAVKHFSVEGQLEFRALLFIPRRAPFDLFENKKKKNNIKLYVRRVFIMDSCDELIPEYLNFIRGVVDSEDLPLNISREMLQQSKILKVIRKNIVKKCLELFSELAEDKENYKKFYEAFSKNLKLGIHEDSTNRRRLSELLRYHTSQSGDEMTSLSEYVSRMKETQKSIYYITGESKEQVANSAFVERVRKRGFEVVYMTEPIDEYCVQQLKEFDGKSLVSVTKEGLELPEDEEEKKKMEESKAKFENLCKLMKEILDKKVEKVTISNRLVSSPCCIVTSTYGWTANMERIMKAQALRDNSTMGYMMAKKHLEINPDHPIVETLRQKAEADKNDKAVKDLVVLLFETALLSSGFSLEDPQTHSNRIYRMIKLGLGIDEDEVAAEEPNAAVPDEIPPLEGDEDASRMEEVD
T1 sequence (Q16543 whole entry): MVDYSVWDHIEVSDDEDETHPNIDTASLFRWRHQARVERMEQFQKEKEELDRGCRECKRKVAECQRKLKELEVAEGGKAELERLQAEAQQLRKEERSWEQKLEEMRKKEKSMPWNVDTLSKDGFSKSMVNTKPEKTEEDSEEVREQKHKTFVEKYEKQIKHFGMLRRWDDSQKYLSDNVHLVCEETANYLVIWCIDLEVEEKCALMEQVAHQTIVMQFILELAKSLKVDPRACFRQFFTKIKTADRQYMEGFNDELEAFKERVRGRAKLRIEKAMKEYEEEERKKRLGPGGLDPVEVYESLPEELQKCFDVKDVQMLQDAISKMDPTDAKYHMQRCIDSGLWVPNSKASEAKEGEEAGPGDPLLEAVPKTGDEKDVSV

[3] = test system: human PCa PC3-M cell orthotopic implants; assay: Murine orthotopic implantation model of human PCa, lung metastasis; format: in vivo, mouse
Description: Prostate cancer: orthotopic implantation: Orthotopic implantation of human GFP-PC3-M PCa cells into 6–8 week male Balb/c athymic mice (Charles River Laboratories) and quantification of distant metastasis was performed as described by us[37]. Treatment with KBU2046, incorporated into Harlan Teklad 2016S® chow, began 1 week prior to implantation. Animals were excluded from the analysis if they died and/or met the criteria for killing in the 7 day post-operative period. Experimental groups were randomly assigned to cages prior to the initiation of the study. Metastasis were scored in a blinded fashion. Specifically, animals were assigned an ID number, resultant histologic slides contained a separate pathological ID number, slides were scored in a random fashion, after which the two numbers were linked up.

442 kinases = assay: KINOMEscan assay; format: binding; conditions: 10 µM; negatives include MKK4, p38 MAPK, RAF1
Description: as §1, §2, §3, §4, §5

[4] = Systemic off-target effects, histologic examination after 35 days; format: in vivo
Description: Histologic examination of tissue: Organs of athymic male mice stained with hematoxylin and eosin, trichrome, or giemsa were microscopically examined by a mouse pathologist (L.L.) in a blinded fashion, and toxicity scored using an established semi-quantitative histological scoring system[38] (Supplementary Fig. 8). The following clinical chemistry parameters were measured in blood of CD1 male and female mice by Charles River Research Animal Diagnostic Services: cholesterol, triglycerides, alanine aminotransferase, aspartate aminotransferase, total bilirubin, glucose, phosphorus, total protein, calcium, blood urea nitrogen (BUN), creatinine, albumin, Na, K, Cl, white blood cells (with differential), red blood cells, hemoglobin, and platelets.
Supplementary Figure 7. KBU2046 treatment is not associated with systemic off-target effects. For histologic examination of tissue, cohorts of N=5 male 6-8 week old Balb/c athymic […]
KBU2046 as described in manuscript Figure 2a. […] Organs were examined for damage using a semi-quantitative histological scoring system, as described 4. […]

O=C1c2ccccc2OCC1c1ccc(F)cc1 (racemic) [KBU2046, (±)-3(4-fluorophenyl)chroman-4-one]
inhibition of protein kinases and phosphatases [1]: failure to inhibit | changes in protein phosphorylation [2]: only a single change | SGK3-mediated phosphorylation of HSP90β (HSP90β; HSP90β, CDC37, SGK3): phosphorylation was further increased | SGK3-mediated phosphorylation of HSP90β (HSP90β; with MAP3K6 added): decreases in the presence of KBU2046 | decrease in metastasis ([3]; KBU2046 in chow, dose-dependent): up to 92% | suppression of metastasis ([3]; at a plasma concentration of 24 nM): 92% and > 90% | primary tumor growth ([3]; tumor weight, mice of Fig. 2a): does not inhibit primary tumor cell growth | inhibition of kinase binding to immobilized substrate (442 kinases): completely negative | organ damage, histological scoring ([4]; athymic mice, KBU2046 in chow, 35 days): No organ damage was observed | toxicity after oral dosing ([4]; oral doses up to 150 mg/kg, up to 35 days): no observed toxicity
